Reference: ChEMBL document CHEMBL1121544, “Synthesis, absorption, and toxicity of N1,N8-bis(2,3-dihydroxybenzoyl)spermidine, a potent iron chelator” (J Med Chem, 1980)

Columns and labels:
Format in all cases: functional, organism-based
Rattus norvegicus [1] = species: Rattus norvegicus; assay: % chelator inside the intestinal sac in animal 1 at lower (distal) segment of the intestine starting from the proximal end
Rattus norvegicus [2] = species: Rattus norvegicus; assay: % chelator inside the intestinal sac in animal 2 at middle segment of the intestine starting from the proximal end.
Rattus norvegicus [3] = species: Rattus norvegicus; assay: % chelator inside the intestinal sac in animal 3 at middle segment of the intestine starting from the proximal end.
Rattus norvegicus [4] = species: Rattus norvegicus; assay: % chelator inside the intestinal sac in animal 1 at middle segment of the intestine starting from the proximal end.
Rattus norvegicus [5] = species: Rattus norvegicus; assay: % chelator inside the intestinal sac in animal 1 at upper segment of the intestine starting from the proximal end.
Rattus norvegicus [6] = species: Rattus norvegicus; assay: % chelator inside the intestinal sac in animal 3 at upper segment of the intestine starting from the proximal end.
Rattus norvegicus [7] = species: Rattus norvegicus; assay: % chelator inside the intestinal sac in animal 2 at upper segment of the intestine starting from the proximal end.
Rattus norvegicus [8] = species: Rattus norvegicus; assay: % chelator inside the intestinal sac in animal 2 at lower (distal) segment of the intestine starting from the proximal end
Rattus norvegicus [9] = species: Rattus norvegicus; assay: % chelator inside the intestinal sac in animal 3 at lower (distal) segment of the intestine starting from the proximal end

For `O=C(NCCCCNCCCNC(=O)c1cccc(O)c1O)c1cccc(O)c1O`, the Chelator (Rattus norvegicus [1]) was 44%, the Chelator (Rattus norvegicus [2]) was 35% and the Chelator (Rattus norvegicus [3]) was 44%. It also gave a Chelator (Rattus norvegicus [4]) of 40%, a Chelator (Rattus norvegicus [5]) of 42% and a Chelator (Rattus norvegicus [6]) of 32%. For the same compound, the Chelator (Rattus norvegicus [7]) was 33%, the Chelator (Rattus norvegicus [8]) was 32% and the Chelator (Rattus norvegicus [9]) was 50%.
